Measured values reported in publication PMC5218480 (PLoS ONE, 2017).

Test system: MV-4-11 cells
Assay: Gene expression microarray analysis (Affymetrix PrimeView) and GSEA
Format: cell-based, human
Set-up: RFU PODN (11730768_x_at) / Fold change /veh PODN (11730768_x_at) / RFU LINC00158 (11744669_a_at) / Fold change /veh LINC00158 (11744669_a_at) / RFU DUSP10 (11751237_a_at) / Fold change /veh DUSP10 (11751237_a_at) / RFU ID3 (11757404_x_at) / Fold change /veh ID3 (11757404_x_at) / RFU PLEKHG5 (11737974_s_at) / Fold change /veh PLEKHG5 (11737974_s_at) / RFU LRRC4B (11730491_at) / Fold change /veh LRRC4B (11730491_at) / RFU GIMAP4 (11747438_a_at) / Fold change /veh GIMAP4 (11747438_a_at) / RFU KRT8 (11758183_x_at) / Fold change /veh KRT8 (11758183_x_at) / RFU CNN1 (11734310_a_at) / Fold change /veh CNN1 (11734310_a_at) / RFU VPS37D (11726825_at) / Fold change /veh VPS37D (11726825_at) / RFU C10orf10 (11716522_x_at) / Fold change /veh C10orf10 (11716522_x_at) / RFU KIR2DL2 /// KIR2DL4 /// KIR2DL5A /// KIR2DL5B /// KIR2DS1 /// KIR2DS2 /// KIR2DS3 /// KIR2DS4 /// KIR3DL3 /// KIR3DL3 /// KIR3DS1 (11738374_at) / Fold change /veh KIR2DL2 /// KIR2DL4 /// KIR2DL5A /// KIR2DL5B /// KIR2DS1 /// KIR2DS2 /// KIR2DS3 /// KIR2DS4 /// KIR3DL3 /// KIR3DL3 /// KIR3DS1 (11738374_at) / RFU C1QL1 (11718748_at) / Fold change /veh C1QL1 (11718748_at) / RFU TMPRSS4 (11747572_a_at) / Fold change /veh TMPRSS4 (11747572_a_at) / RFU HAMP (11756126_x_at) / Fold change /veh HAMP (11756126_x_at) / RFU RNFT2 (11725882_a_at) / Fold change /veh RNFT2 (11725882_a_at) / RFU NR4A2 (11747474_a_at) / Fold change /veh NR4A2 (11747474_a_at) / RFU ABCC12 (11746883_a_at) / Fold change /veh ABCC12 (11746883_a_at) / RFU TMEM136 (11760407_x_at) / Fold change /veh TMEM136 (11760407_x_at) / RFU CLDN22 /// WWC2 (11732394_at) / Fold change /veh CLDN22 /// WWC2 (11732394_at) / RFU HLA-DPB1 (11760878_x_at) / Fold change /veh HLA-DPB1 (11760878_x_at) / RFU SPINT1 (11716480_a_at) / Fold change /veh SPINT1 (11716480_a_at) / RFU GAP43 (11754022_s_at) / Fold change /veh GAP43 (11754022_s_at) / RFU A4GNT (11735810_at) / Fold change /veh A4GNT (11735810_at) / RFU PRB3 (11715151_x_at) / Fold change /veh PRB3 (11715151_x_at) / RFU TUBB4B (11761932_at) / Fold change /veh TUBB4B (11761932_at) / RFU CAPN14 (11732068_a_at) / Fold change /veh CAPN14 (11732068_a_at) / RFU TMCC2 (11721928_a_at) / Fold change /veh TMCC2 (11721928_a_at) / RFU IRGQ (11745062_a_at) / Fold change /veh IRGQ (11745062_a_at) / RFU FAM174B (11720279_a_at) / Fold change /veh FAM174B (11720279_a_at) / RFU TMPRSS4 (11748680_a_at) / Fold change /veh TMPRSS4 (11748680_a_at) / RFU FAM212B (11763350_a_at) / Fold change /veh FAM212B (11763350_a_at) / RFU PLEKHG5 (11743358_a_at) / Fold change /veh PLEKHG5 (11743358_a_at) / RFU ZSCAN30 (11745921_a_at) / Fold change /veh ZSCAN30 (11745921_a_at) / RFU CMKLR1 (11741424_a_at) / Fold change /veh CMKLR1 (11741424_a_at) / RFU LOC101060620 /// MAPK8IP1 (11723275_at) / Fold change /veh LOC101060620 /// MAPK8IP1 (11723275_at) / RFU SPTSSB (11747773_x_at) / Fold change /veh SPTSSB (11747773_x_at) / RFU PRSS12 (11739890_at) / Fold change /veh PRSS12 (11739890_at) / RFU BIN1 (11741810_x_at) / Fold change /veh BIN1 (11741810_x_at) / RFU WNT11 (11732464_a_at) / Fold change /veh WNT11 (11732464_a_at) / RFU C10orf10 (11716521_a_at) / Fold change /veh C10orf10 (11716521_a_at) / RFU C5orf56 (11738089_at) / Fold change /veh C5orf56 (11738089_at) / RFU CYB561 (11721691_x_at) / Fold change /veh CYB561 (11721691_x_at) / RFU ANKRD19P (11752326_a_at) / Fold change /veh ANKRD19P (11752326_a_at) / RFU OR2T12 /// OR2T33 /// OR2T8 (11738714_s_at) / Fold change /veh OR2T12 /// OR2T33 /// OR2T8 (11738714_s_at) / RFU VCAN (11748164_a_at) / Fold change /veh VCAN (11748164_a_at) / RFU JSRP1 (11732532_at) / Fold change /veh JSRP1 (11732532_at) / RFU KRTAP10-11 (11738290_x_at) / Fold change /veh KRTAP10-11 (11738290_x_at) / RFU MYO3A (11730013_a_at) / Fold change /veh MYO3A (11730013_a_at) / RFU EBF3 (11725865_a_at) / Fold change /veh EBF3 (11725865_a_at) / RFU CAMK2N1 (11719241_x_at) / Fold change /veh CAMK2N1 (11719241_x_at) / RFU C5orf56 (11738088_a_at) / Fold change /veh C5orf56 (11738088_a_at) / RFU OLFML3 (11715873_a_at) / Fold change /veh OLFML3 (11715873_a_at) / RFU LOC100653217 /// NTM (11731650_a_at) / Fold change /veh LOC100653217 /// NTM (11731650_a_at) / RFU MAPK11 (11762145_a_at) / Fold change /veh MAPK11 (11762145_a_at) / RFU FIZ1 (11724087_x_at) / Fold change /veh FIZ1 (11724087_x_at) / RFU OASL (11726364_x_at) / Fold change /veh OASL (11726364_x_at) / RFU SOX15 (11748057_x_at) / Fold change /veh SOX15 (11748057_x_at) / RFU CD79A (11719716_a_at) / Fold change /veh CD79A (11719716_a_at) / RFU HIST1H1D (11736915_at) / Fold change /veh HIST1H1D (11736915_at) / RFU CASKIN2 (11723855_a_at) / Fold change /veh CASKIN2 (11723855_a_at) / RFU LOC730098 (11760151_x_at) / Fold change /veh LOC730098 (11760151_x_at) / RFU OR4N2 (11742367_at) / Fold change /veh OR4N2 (11742367_at) / RFU PRRT2 (11749266_a_at) / Fold change /veh PRRT2 (11749266_a_at) / RFU SNX32 (11753110_a_at) / Fold change /veh SNX32 (11753110_a_at) / RFU CDHR5 (11726645_a_at) / Fold change /veh CDHR5 (11726645_a_at) / RFU RCAN1 (11760418_a_at) / Fold change /veh RCAN1 (11760418_a_at) / RFU FAM167A (11723789_a_at) / Fold change /veh FAM167A (11723789_a_at) / RFU FAM26E (11764081_at) / Fold change /veh FAM26E (11764081_at) / RFU ISYNA1 (11749810_s_at) / Fold change /veh ISYNA1 (11749810_s_at) / RFU ACY1 (11761880_at) / Fold change /veh ACY1 (11761880_at) / RFU 11764098_at / Fold change /veh 11764098_at / RFU SAMD14 (11745864_x_at) / Fold change /veh SAMD14 (11745864_x_at) / RFU NPB (11741838_a_at) / Fold change /veh NPB (11741838_a_at) / RFU TMPRSS6 (11731388_a_at) / Fold change /veh TMPRSS6 (11731388_a_at) / RFU KRTAP10-2 (11738614_at) / Fold change /veh KRTAP10-2 (11738614_at) / RFU ARHGAP8 /// PRR5-ARHGAP8 (11727945_x_at) / Fold change /veh ARHGAP8 /// PRR5-ARHGAP8 (11727945_x_at) / RFU KRTAP5-7 /// NADSYN1 (11734609_at) / Fold change /veh KRTAP5-7 /// NADSYN1 (11734609_at) / RFU RASL12 (11751679_a_at) / Fold change /veh RASL12 (11751679_a_at) / RFU CDKN2B (11736163_a_at) / Fold change /veh CDKN2B (11736163_a_at) / RFU PRF1 (11729649_at) / Fold change /veh PRF1 (11729649_at) / RFU, ZNF638 /// ZNF638-IT1 / Fold change vs veh, ZNF638 /// ZNF638-IT1 / RFU, PANK3 / Fold change vs veh, PANK3 / RFU, SH3YL1 / Fold change vs veh, SH3YL1 / RFU, ZEB2 / Fold change vs veh, ZEB2 / RFU, NRIP1 / Fold change vs veh, NRIP1 / RFU, PTTG1IP / Fold change vs veh, PTTG1IP / RFU, CAPN2 / Fold change vs veh, CAPN2 / RFU, MED14 / Fold change vs veh, MED14 / RFU, SNORA58 / Fold change vs veh, SNORA58 / RFU, C1orf63 / Fold change vs veh, C1orf63 / RFU, LRRFIP1 / Fold change vs veh, LRRFIP1 / RFU, NDUFAF7 / Fold change vs veh, NDUFAF7 / RFU, SLC12A2 / Fold change vs veh, SLC12A2 / RFU, IBTK / Fold change vs veh, IBTK / RFU, ESF1 / Fold change vs veh, ESF1 / Fold change vs veh, TMEM50B / RFU, TAOK1 / Fold change vs veh, TAOK1 / RFU, ACBD3 / Fold change vs veh, ACBD3 / RFU, TMA16 / Fold change vs veh, TMA16 / RFU, RWDD3 / Fold change vs veh, RWDD3 / RFU, BCAT1 / Fold change vs veh, BCAT1 / RFU, EDEM3 / Fold change vs veh, EDEM3 / RFU, TMEM33 / Fold change vs veh, TMEM33 / RFU, WDR75 / Fold change vs veh, WDR75 / RFU, AHCTF1 / Fold change vs veh, AHCTF1 / RFU, TFRC / Fold change vs veh, TFRC / RFU, ZDHHC17 / Fold change vs veh, ZDHHC17 / RFU, NOM1 / Fold change vs veh, NOM1 / RFU, ARL8B / Fold change vs veh, ARL8B / RFU, ZBTB11 / Fold change vs veh, ZBTB11 / RFU, TAMM41 / Fold change vs veh, TAMM41 / RFU, KIAA1704 /// LOC100996395 / Fold change vs veh, KIAA1704 /// LOC100996395 / RFU, ING1 / Fold change vs veh, ING1 / RFU, TRMT61B / Fold change vs veh, TRMT61B / RFU, FUBP3 / Fold change vs veh, FUBP3 / RFU, TP53 / Fold change vs veh, TP53 / RFU, TNKS2 / Fold change vs veh, TNKS2 / RFU, ZFP14 / Fold change vs veh, ZFP14 / RFU, ACTR2 / Fold change vs veh, ACTR2 / RFU, PPP3R1 / Fold change vs veh, PPP3R1 / RFU, PIK3R1 / Fold change vs veh, PIK3R1 / RFU, HNRNPA1 / Fold change vs veh, HNRNPA1 / RFU, RNF170 / Fold change vs veh, RNF170 / RFU, ZNF28 / Fold change vs veh, ZNF28 / RFU, RNGTT / Fold change vs veh, RNGTT / RFU, OGT / Fold change vs veh, OGT / RFU, BRD1 / Fold change vs veh, BRD1 / RFU, MARS / Fold change vs veh, MARS / RFU, ZNF655 / Fold change vs veh, ZNF655 / RFU, FAHD1 / Fold change vs veh, FAHD1 / RFU, BDP1 / Fold change vs veh, BDP1 / RFU, LRRCC1 / Fold change vs veh, LRRCC1 / RFU, ARID1A / Fold change vs veh, ARID1A / RFU, ZNF146 / Fold change vs veh, ZNF146 / RFU, ZNF330 / Fold change vs veh, ZNF330 / RFU, GPN3 / Fold change vs veh, GPN3 / RFU, C9orf123 / Fold change vs veh, C9orf123 / RFU, N4BP2L2 / Fold change vs veh, N4BP2L2 / RFU, ARFIP1 / Fold change vs veh, ARFIP1 / RFU, FAM179B / Fold change vs veh, FAM179B / RFU, BCL10 / Fold change vs veh, BCL10 / RFU, UHRF1BP1L / Fold change vs veh, UHRF1BP1L / RFU, BET1 / Fold change vs veh, BET1 / RFU, CNOT2 / Fold change vs veh, CNOT2 / RFU, ZNF268 / Fold change vs veh, ZNF268 / Fold change vs veh, ZNF507 / RFU, DGCR2 / Fold change vs veh, DGCR2 / RFU, WDSUB1 / Fold change vs veh, WDSUB1 / Fold change vs veh, HSP90B1 /// MIR3652 / RFU, ADSS / Fold change vs veh, ADSS / RFU, GK / Fold change vs veh, GK / RFU, ZNF148 / Fold change vs veh, ZNF148 / RFU, TAF9 / Fold change vs veh, TAF9 / RFU, SLC1A5 / Fold change vs veh, SLC1A5 / RFU, SLMO2 / Fold change vs veh, SLMO2 / RFU, ABCC4 / Fold change vs veh, ABCC4 / RFU, LOC101060439 /// RAP1B / Fold change vs veh, LOC101060439 /// RAP1B / RFU, RFX7 / Fold change vs veh, RFX7 / RFU, GTPBP10 / Fold change vs veh, GTPBP10 / RFU, CNEP1R1 / Fold change vs veh, CNEP1R1 / RFU, BIVM-ERCC5 /// ERCC5 / Fold change vs veh, BIVM-ERCC5 /// ERCC5 / RFU, ILF3 / Fold change vs veh, ILF3 / RFU 11762660_at / Fold change /veh 11762660_at / RFU VCAN (11757783_s_at) / Fold change /veh VCAN (11757783_s_at) / RFU DDX43 (11728927_at) / Fold change /veh DDX43 (11728927_at) / RFU KRT8 (11758188_x_at) / Fold change /veh KRT8 (11758188_x_at) / RFU NKD1 (11759106_at) / Fold change /veh NKD1 (11759106_at) / RFU SRD5A1 (11742802_a_at) / Fold change /veh SRD5A1 (11742802_a_at) / RFU TPSAB1 /// TPSB2 (11721975_s_at) / Fold change /veh TPSAB1 /// TPSB2 (11721975_s_at) / RFU GSTM3 (11746129_a_at) / Fold change /veh GSTM3 (11746129_a_at) / RFU IL23R (11737362_x_at) / Fold change /veh IL23R (11737362_x_at) / RFU TMEM51 (11727254_a_at) / Fold change /veh TMEM51 (11727254_a_at) / RFU PIWIL2 (11732686_x_at) / Fold change /veh PIWIL2 (11732686_x_at) / RFU ORM1 (11744905_x_at) / Fold change /veh ORM1 (11744905_x_at) / RFU CCDC152 (11743942_at) / Fold change /veh CCDC152 (11743942_at) / RFU ECM1 (11717891_a_at) / Fold change /veh ECM1 (11717891_a_at) / RFU IL23R (11748794_a_at) / Fold change /veh IL23R (11748794_a_at) / RFU TNFAIP8L3 (11732012_x_at) / Fold change /veh TNFAIP8L3 (11732012_x_at) / RFU MBOAT4 (11741988_at) / Fold change /veh MBOAT4 (11741988_at) / RFU 11764193_at / Fold change /veh 11764193_at / RFU TMEM53 (11763286_at) / Fold change /veh TMEM53 (11763286_at) / RFU MAGEB2 (11727129_at) / Fold change /veh MAGEB2 (11727129_at) / RFU TMEM200A (11744735_a_at) / Fold change /veh TMEM200A (11744735_a_at) / RFU CCDC152 (11751479_a_at) / Fold change /veh CCDC152 (11751479_a_at) / RFU FAM211A (11726209_a_at) / Fold change /veh FAM211A (11726209_a_at) / RFU RGS16 (11746705_a_at) / Fold change /veh RGS16 (11746705_a_at) / RFU VCAN (11755009_s_at) / Fold change /veh VCAN (11755009_s_at) / RFU RHOB (11743442_s_at) / Fold change /veh RHOB (11743442_s_at) / RFU RGS16 (11720943_a_at) / Fold change /veh RGS16 (11720943_a_at) / RFU RGS16 (11720944_at) / Fold change /veh RGS16 (11720944_at) / RFU, VPS4B / Fold change vs veh, VPS4B / RFU, CREB1 / Fold change vs veh, CREB1 / RFU, DNAJC13 / Fold change vs veh, DNAJC13 / RFU, GNAQ / Fold change vs veh, GNAQ / RFU, CDK5R1 / Fold change vs veh, CDK5R1 / RFU, ZRANB3 / Fold change vs veh, ZRANB3 / RFU, CUL4A / Fold change vs veh, CUL4A / RFU, CCNY / Fold change vs veh, CCNY / RFU, UFL1 / Fold change vs veh, UFL1 / RFU, COG3 / Fold change vs veh, COG3 / RFU, DIAPH2 / Fold change vs veh, DIAPH2 / RFU, SKA2 / Fold change vs veh, SKA2 / RFU, AFF3 / Fold change vs veh, AFF3 / RFU, LMF1 / Fold change vs veh, LMF1 / RFU, IPO11 / Fold change vs veh, IPO11 / RFU, DFFB / Fold change vs veh, DFFB / RFU, FOXP1 / Fold change vs veh, FOXP1 / RFU, CARD8 / Fold change vs veh, CARD8 / RFU, STRN3 / Fold change vs veh, STRN3 / RFU, ADK / Fold change vs veh, ADK / RFU, RASSF2 / Fold change vs veh, RASSF2 / RFU, WIPF1 / Fold change vs veh, WIPF1 / RFU, LARP1B / Fold change vs veh, LARP1B / RFU, RASA1 / Fold change vs veh, RASA1 / RFU, RB1 / Fold change vs veh, RB1 / RFU, PPFIA1 / Fold change vs veh, PPFIA1 / RFU, MAT2A / Fold change vs veh, MAT2A / RFU, CCT5 / Fold change vs veh, CCT5 / RFU, WDR92 / Fold change vs veh, WDR92 / RFU, CUX1 / Fold change vs veh, CUX1 / RFU, TTC7A / Fold change vs veh, TTC7A / RFU, TMEM135 / Fold change vs veh, TMEM135 / RFU, DEPTOR / Fold change vs veh, DEPTOR / RFU, CPM / Fold change vs veh, CPM / RFU, DNAJB6 / Fold change vs veh, DNAJB6 / RFU, CACNA2D3 / Fold change vs veh, CACNA2D3 / RFU, DTX4 / Fold change vs veh, DTX4 / RFU, TFCP2 / Fold change vs veh, TFCP2 / RFU, GMCL1 /// GMCL1P1 / Fold change vs veh, GMCL1 /// GMCL1P1 / RFU, AEBP2 / Fold change vs veh, AEBP2 / RFU, SNHG1 /// SNORD22 /// SNORD25 /// SNORD26 /// SNORD27 /// SNORD28 /// SNORD29 /// SNORD31 / Fold change vs veh, SNHG1 /// SNORD22 /// SNORD25 /// SNORD26 /// SNORD27 /// SNORD28 /// SNORD29 /// SNORD31 / Fold change (Aza/veh), C12orf56 (ProbeSet 11735607_a_at) / Fold change (ACY-1035/veh), C12orf56 (ProbeSet 11735607_a_at) / Fold change (Aza/veh), FGFR1OP (ProbeSet 11751329_s_at) / Fold change (ACY-1035/veh), FGFR1OP (ProbeSet 11751329_s_at) / Fold change (Aza/veh), VPS36 (ProbeSet 11739960_a_at) / Fold change (ACY-1035/veh), VPS36 (ProbeSet 11739960_a_at) / RFU SYPL1 (11715823_x_at) / Fold change /veh SYPL1 (11715823_x_at) / RFU IGFBP7 (11715501_s_at) / Fold change /veh IGFBP7 (11715501_s_at) / RFU REEP3 (11722064_at) / Fold change /veh REEP3 (11722064_at) / RFU IGLL1 (11728026_x_at) / Fold change /veh IGLL1 (11728026_x_at): dose or concentration left out as unconfirmed
Settings: ProbeSet 11726661_s_at; LIST B

Nc1ccc(-c2cccs2)cc1NC(=O)c1ccc2c(c1)cc(C1CC1)n2CCN1CCOCC1 [ACY-1035]
Fold change vs veh, GPN3: 0.89
